Results from EP1216043B1, “RETARD FORM CONTAINING ALPHA-LIPOIC ACID (DERIVATIVES)” (priority 1999, dated 2001).
Like-named read-outs stand apart in the source and are kept apart here.

What was measured:
[1] = Diffusion study: diffusion of α-Liponsäure out of a dialysis vessel with/without Chitosan and Essigsäure
Text: Bei der vorliegenden Diffusionsstudie wurde der Einfluss von Chitosan auf das Diffusionsverhalten von α-Liponsäure untersucht.

[2] = cited from earlier work; for Cmax / F (Bioverfügbarkeit) / t1/2 / tmax: peroral, arithmetic mean; for absolute Bioverfügbarkeit: clinical studies, range over the dosage forms of Tabelle 1
[3] = 200 mg (±)-Liponsäure als 200 mg-Tablette
[4] = 200 mg (±)-Liponsäure als 4x50 mg-Tabletten
[5] = 200 mg (±)-Liponsäure als Lösung

Row | Compound | share of the Konzentrationsgleichgewicht reached ([1]; in presence of Chitosan, without Essigsäure, ca. 5 hours) | time until Konzentrationsgleichgewicht der α-Liponsäure innerhalb und außerhalb des Dialysegefäßes was reached ([1]; ohne Chitosan, printed as 'ca.') [Stunden] | Plasma-Halbwertszeit ([2]; after peroral administration) | Cmax [2, 3] [ng/mL] | F (Bioverfügbarkeit) [2, 3] [%] | t1/2 [2, 3] [min] | tmax [2, 3] [min] | Cmax [2, 4] [ng/mL] | F (Bioverfügbarkeit) [2, 4] [%] | t1/2 [2, 4] [min] | tmax [2, 4] [min] | Cmax [2, 5] [ng/mL] | F (Bioverfügbarkeit) [2, 5] [%] | t1/2 [2, 5] [min] | tmax [2, 5] [min] | absolute Bioverfügbarkeit [2]
1 | O=C(O)CCCCC1CCSS1 (racemic) [α-Liponsäure, 1,2-Dithiolan-3-pentansäure] | 63,8 % ± 4,3 | ≤ 5 | weniger als zwei Stunden | – | – | – | – | – | – | – | – | – | – | – | – | –
2 | O=C(O)CCCC[C@H]1CCSS1 [S, S-(-)-α-Liponsäure] | – | – | – | 310 | 19.1 | 19.8 | 54 | 380 | 20.9 | 49.2 | 42 | 1320 | 28.3 | 9 | 12.6 | 19.1 - 28.3%
3 | O=C(O)CCCC[C@@H]1CCSS1 [R, R-(+)-α-Liponsäure] | – | – | – | 490 | 24.1 | 19.8 | 54 | 600 | 25.9 | 42.6 | 42 | 2240 | 38.2 | 14.4 | 12.6 | 24.1 - 38.2%
